Data from patent US20080153896A1, “Polymorphic Forms of an HMG-CoA Reductase Inhibitor and Uses Thereof” (priority 2006, published 2008).

Test: Stability (integrity) testing of amorphous and polymorphic form under storage conditions, RP-HPLC
Format: physicochemical
Design: key to Impurity RRT 0.738 / Impurity RRT 0.949 / Impurity RRT 1.050 / Impurity RRT 1.550 / Impurity RRT 0.136 / Impurity RRT 0.720 / Impurity RRT 0.706 / Impurity RRT 1.18 / Impurity RRT 1.826: % of total UV absorption (HPLC peak area)
Method in brief: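 Amorphous form and three batches of polymorphic Form I of the hemi calcium salt were stored under different atmospheric conditions. Purity measured by RP-HPLC on C18 with UV detection, drug as percent of total absorption; total impurity from summed impurity peak areas, impurities identified by relative retention time.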

[1] = 25° C./60% RH 3M, hemi calcium salt
[2] = 25° C./60% RH 9M, hemi calcium salt

## CC(C)c1c(C(=O)Nc2ccc(CO)cc2)c(-c2ccccc2)c(-c2ccc(F)cc2)n1CC[C@@H](O)C[C@@H](O)CC(=O)[O-].CC(C)c1c(C(=O)Nc2ccc(CO)cc2)c(-c2ccccc2)c(-c2ccc(F)cc2)n1CC[C@@H](O)C[C@@H](O)CC(=O)[O-].[Ca+2] [PP00405, (3R, 5R)-7-[2-(4-fluorophenyl)-5-isopropyl-3-phenyl-4-[(4-hydroxymethylphenylamino)carbonyl]-pyrrol-1-yl]-3,5-dihydroxy-heptanoic acid, hemi calcium salt]
5° C. 1M
  Description: White
  Impurity RRT 1.094: 0.157
  Impurity RRT 1.437: 0.155
  Impurity RRT 1.593: 0.082
  Impurity RRT 1.694: 0.069
5° C. 1M, hemi calcium salt
  Assay: 98.31 % W/W
  Highest Impurity: 0.360
  Impurity RRT 0.935: 0.360
  Impurity RRT 1.045: 0.357
  Impurity RRT 1.64: 0.057
  Total Impurity: 1.237
  Water: 4.81 % W/W
5° C. 2M
  Description: White
  Impurity RRT 1.094: 0.161
  Impurity RRT 1.180: 0.048
  Impurity RRT 1.437: 0.164
  Impurity RRT 1.593: 0.085
  Impurity RRT 1.694: 0.067
5° C. 2M, hemi calcium salt
  Assay: 98.25 % W/W
  Highest Impurity: 0.380
  Impurity RRT 0.935: 0.380
  Impurity RRT 1.045: 0.375
  Impurity RRT 1.64: 0.051
  Total Impurity: 1.33
  Water: 4.61 % W/W
5° C. 3M
  Description: White
  Impurity RRT 1.094: 0.149
  Impurity RRT 1.437: 0.169
  Impurity RRT 1.593: 0.077
  Impurity RRT 1.694: 0.056
  Total Impurity: 1.35
5° C. 3M, hemi calcium salt
  Assay: 98.20 % W/W
  Highest Impurity: 0.469
  Impurity RRT 0.935: 0.385
  Impurity RRT 1.045: 0.469
  Impurity RRT 1.64: 0.047
  Water: 4.97 % W/W
5° C. 4M
  Description: White
  Impurity RRT 1.094: 0.169
  Impurity RRT 1.437: 0.132
  Impurity RRT 1.593: 0.071
  Impurity RRT 1.694: 0.071
5° C. 4M, hemi calcium salt
  Assay: 98.24 % W/W
  Highest Impurity: 0.419
  Impurity RRT 0.935: 0.419
  Impurity RRT 1.045: 0.409
  Impurity RRT 1.640: 0.067
  Total Impurity: 1.338
  Water: 4.43 % W/W
5° C. 5M
  Description: White
  Impurity RRT 1.094: 0.105
  Impurity RRT 1.437: 0.155
  Impurity RRT 1.550: 0.587
  Impurity RRT 1.694: 0.045
5° C. 5M, hemi calcium salt
  Assay: 98.29 % W/W
  Highest Impurity: 0.587
  Impurity RRT 0.935: 0.289
  Impurity RRT 1.045: 0.312
  Impurity RRT 1.640: 0.024
  Total Impurity: 1.517
  Water: 5.55 % W/W
5° C. 6M
  Description: White
  Impurity RRT 1.094: 0.153
  Impurity RRT 1.437: 0.170
  Impurity RRT 1.593: 0.081
  Impurity RRT 1.694: 0.070
  Water: 5.04 % W/W
5° C. 6M, hemi calcium salt
  Assay: 98.02 % W/W
  Highest Impurity: 0.423
  Impurity RRT 0.935: 0.423
  Impurity RRT 1.045: 0.390
  Impurity RRT 1.640: 0.053
  Total Impurity: 1.340
5° C. 9M
  Description: White
  Impurity RRT 1.094: 0.161
  Impurity RRT 1.180: 0.055
  Impurity RRT 1.437: 0.170
  Impurity RRT 1.593: 0.065
  Impurity RRT 1.694: 0.064
5° C. 9M, hemi calcium salt
  Assay: 98.12 % W/W
  Highest Impurity: 0.407
  Impurity RRT 0.935: 0.407
  Impurity RRT 1.045: 0.407
  Impurity RRT 1.640: 0.033
  Total Impurity: 1.362
  Water: 5.07 % W/W
5° C. 12M
  Description: White
  Impurity RRT 1.094: 0.158
  Impurity RRT 1.180: 0.022
  Impurity RRT 1.437: 0.152
  Impurity RRT 1.593: 0.086
  Impurity RRT 1.694: 0.068
5° C. 12M, hemi calcium salt
  Assay: 97.78 % W/W
  Highest Impurity: 0.432
  Impurity RRT 0.935: 0.417
  Impurity RRT 1.045: 0.432
  Impurity RRT 1.640: 0.051
  Total Impurity: 1.413
  Water: 5.08 % W/W
25° C./50% RH 6M
  Assay: 98.01 % W/W
  Description: White
  Highest Impurity: 0.390
  Impurity RRT 0.935: 0.390
  Impurity RRT 1.045: 0.370
  Impurity RRT 1.094: 0.140
  Impurity RRT 1.437: 0.117
  Impurity RRT 1.593: 0.073
  Impurity RRT 1.640: 0.048
  Impurity RRT 1.694: 0.074
  Total Impurity: 1.212
  Water: 5.41 % W/W
25° C./60% RH 3M
  Description: White
  Impurity RRT 1.094: 0.153
  Impurity RRT 1.437: 0.155
  Impurity RRT 1.593: 0.079
  Impurity RRT 1.694: 0.064
[1]
  Assay: 98.21 % W/W
  Highest Impurity: 0.388
  Impurity RRT 0.935: 0.368
  Impurity RRT 1.045: 0.382
  Impurity RRT 1.64: 0.047
  Total Impurity: 1.270
  Water: 4.03 % W/W
25° C./60% RH 9M
  Description: White
  Impurity RRT 1.094: 0.141
  Impurity RRT 1.437: 0.162
  Impurity RRT 1.593: 0.076
  Impurity RRT 1.694: 0.068
[2]
  Assay: 98.09 % W/W
  Highest Impurity: 0.376
  Impurity RRT 0.935: 0.374
  Impurity RRT 1.045: 0.376
  Impurity RRT 1.640: 0.046
  Total Impurity: 1.243
  Water: 5.04 % W/W
25° C./60% RH 12M
  Description: White
  Impurity RRT 1.094: 0.153
  Impurity RRT 1.180: 0.019
  Impurity RRT 1.437: 0.145
  Impurity RRT 1.593: 0.083
  Impurity RRT 1.694: 0.059
25° C./60% RH 12M, hemi calcium salt
  Assay: 97.95 % W/W
